d = 2'-deoxy (DNA); r = 2'-OH (RNA)
How the values were obtained:
[1] = Thermal denaturation (Tm) of siRNA duplexes; assay type: physicochemical; conditions: for Tm: 7.5 mM phosphate buffer pH 7.0 containing 140 mM KCl, 1 μM strands, 40-95° C.
Procedure: Thermal denaturation studies of siRNA was carried out in phosphate buffer, pH 7.0, containing 140 mM KCl. UV absorbance was monitored at 260 nm in the temperature range from 40 to 95° C. using a Lambda 35 UV-Vis spectrophotometer equipped with a Peltier temperature programmer with a heating rate of 0.5° C./min. Samples (1 μM RNA) were denatured at 90° C. for 3 min followed by slow cooling to 27° C. prior to the measurements. Tm values were obtained from the maxima of the first derivatives of the melting curves. All Tm values given are the averages of three independent sets of experiments (±0.3° C. error range).

GAPDH [2] = experiment: Carrier-free GAPDH knockdown in different cell types (HOB, HCT116, MG63) by RT-PCR; assay type: cell-based, human
Procedure: Primary human osteoblast (HOB) cells isolated from human trabecular bone and keratinocytes and fibroblasts cells were isolated from skin tissue from healthy human donors. MG63 (human osteosarcoma cell line), HCT116 (human colon cancer cell line), HEK293 (human embryonic kidney 293 cells), C2C12 (mouse myoblast cell line) and MC3T3 (mouse osteoblast precursor cell line) cell lines were obtained from American Type Culture Collection, ATCC (Manassas, Va., USA). Cells were cultured until confluence was reached. The human cell experiments were approved by the local ethics committee (Ethical approval # Ups 03-561).
At 70% confluency, a day prior to transfection, the cells were seeded at a density of 35 000 cells in a 24-well cell culture plate to achieve 60-80% confluence at the day of transfection. Cell penetrating siRNAs (cpRNAs) of different lengths were transfected at 50 nM concentrations with Magnet Assisted Transfection (MATra-si) reagent for siRNAs (IBA GmbH, Göttingen, Germany) according to the manufacturers' protocols. […]
cDNA synthesis was performed in triplicate using total RNA reverse transcribed using High Capacity cDNA reverse transcription kit (Applied Biosystems, USA), with non-template control added to ensure a lack of signal in assay background. […] Data from samples with a Ct value equal to or below 35 were further analyzed. Samples were normalized relative to endogenous control and differences in cycle number thresholds were calculated using comparative quantitation 2^−ΔΔcT method (also called the ΔΔCT method), commonly used for analyzing siRNA induced gene knockdown efficiency.
The formulas used to calculate gene knockdown were as follows: First, the ΔCT was calculated as the mean cycle threshold for the target gene minus the mean cycle thresholds for the endogenous controls ACTB, each performed in triplicates: ΔCT=CT (target gene)−CT (endogenous control). Secondly, the ΔΔCT was calculated as the ΔCT of the target minus the ΔCT of negative control (NC): ΔΔCT=ΔCT (target)−ΔCT (NC). […]

GAPDH [3] = experiment: Western blot of GAPDH protein in MG63 cells; assay type: cell-based, human; conditions: MG63, 50 nM, at 48 h, no transfection reagent
Procedure: After 48 hours of transfection, cells were washed twice with ice-cold PBS and lysed in RIPA lysis buffer (50 mM Tris-HCl, pH 8.0, with 150 mM NaCl, 1.0% Igepal CA-630 (NP-40), 0.5% sodiumdeoxycholate, 0.1% SDS, and 1.0% protease inhibitor cocktail from SIGMA-ALDRICH®). Lysates were incubated on ice for 30 minutes and centrifuged at 10,000 rpm for 20 minutes to collect supernatant. Coomassie Plus—The Better Bradford Assay™ Reagent (Thermo Scientific) was used to measure protein concentrations. Thereafter, 20 μg of soluble protein was separated by SDS-PAGE and transferred to polyvinylidene difluoride membrane (Millipore). Primary antibodies against GAPDH (1:1000 dilution), β-catenin (1:1000 dilution; SIGMA-ALDRICH®), β-actin (1:1000; Cell Signaling Technology®) were used to probe the protein bands. Anti-Rabbit-HRP conjugated secondary antibodies (1:3000 dilution; R&D Systems®) were used to detect the primary antibodies, followed by the target protein visualization with EMD Millipore Immobilon™ Western Chemiluminescent HRP Substrate (ECL). […]
To further validate our results, we tested the gene knockdown efficiency of another gene CTNNB1 (β-catenin), which is expressed in MG63 cells. We performed a time course experiment (24, 48 and 72 h) by targeting CTNNB1 and GAPDH in MG63 cells and quantified the mRNA and protein levels using qRT-PCR and Western blot experiments respectively (FIG. 8).

Substance	Tm [1]	RNAi activity in primary cells (GAPDH [2]; primary cells)	Δ Tm ([1]; Tm relative to canonical siRNA (dT2))	drop in Tm ([1]; as compared to canonical siRNA)	GAPDH protein level (GAPDH [3])	GAPDH gene knockdown in different cell types (GAPDH [2]; 50 nM)	knockdown efficiency compared to canonical siRNA (GAPDH [2]; HOB, HCT116 and MG63 cells)
dT2: Canonical GAPDH siRNA, sense SEQ ID NO: 1, antisense SEQ ID NO: 2, dTdT 3′-overhang on both strands (sense CCGAGCCACAUCGCUCAGATT; antisense UCUGAGCGAUGUGGCUCGGTT; sugars from the 5' end r19 d2, backbone not given here) [reference compound]	81.2 °C	only limited activity	–	–	–	–	–
dT5: GAPDH siRNA, sense SEQ ID NO: 3 with dT5 3′-overhang, antisense SEQ ID NO: 2 with dT2 (sense CCGAGCCACAUCGCUCAGATTTTT; antisense UCUGAGCGAUGUGGCUCGGTT; sense: sugars from the 5' end r19 d5, backbone not given here; antisense: sugars from the 5' end r19 d2, backbone not given here)	80.6 °C	–	−0.6 °C	about 0.5 °C	complete knockout	80%	3-4 fold
